The supplement of paper PMC10307832

How the values were obtained:
Test in all cases: relative viability (nuclei count vs DMSO), 5 days (fraction); higher = more cells survive
NCI-H441 = test system: NCI-H441
How it was run: (§1)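 For relative viability, nuclei counts in treated wells were divided by those in vehicle wells. Lung cancer cell lines had been pin-tool dosed in 1536-well plates the day after seeding and cultured for 5 days, then fixed and stained in one step (final 0.05% Triton X-100, 1% formaldehyde, 1 ug/ml Hoechst) and imaged at 4×. Doses were one drug alone or a fixed anchor-drug dose plus five library-drug doses (not always all listed) in √10 steps, and values are duplicate-plate medians.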

NCI-H23 = test system: NCI-H23
How it was run: as §1

RERF-LC-KJ = test system: RERF-LC-KJ
How it was run: as §1

NCI-H1355 = test system: NCI-H1355
How it was run: as §1

NCI-H2009 = test system: NCI-H2009
How it was run: as §1

LCLC-97TM1 = test system: LCLC-97TM1
How it was run: as §1

NCI-H2023 = test system: NCI-H2023
How it was run: as §1

NCI-H727 = test system: NCI-H727
How it was run: as §1

NCI-H322M = test system: NCI-H322M
How it was run: as §1

HOP-62 = test system: HOP-62
How it was run: as §1

NCI-H1437 = test system: NCI-H1437
How it was run: as §1

NCI-H2085 = test system: NCI-H2085
How it was run: as §1

UMC-11 = test system: UMC-11
How it was run: as §1

NCI-H1755 = test system: NCI-H1755
How it was run: as §1

ChaGo-K-1 = test system: ChaGo-K-1
How it was run: as §1

LOU-NH91 = test system: LOU-NH91
How it was run: as §1

HCC-78 = test system: HCC-78
How it was run: as §1

NCI-H2405 = test system: NCI-H2405
How it was run: as §1

NCI-H2170 = test system: NCI-H2170
How it was run: as §1

SK-MES-1 = test system: SK-MES-1
How it was run: as §1

NCI-H1792 = test system: NCI-H1792
How it was run: as §1

## Cc1cnc(-c2cnc(NCCNc3ccc(C#N)cn3)nc2-c2ccc(Cl)cc2Cl)[nH]1 + CC1(C)CCC(c2ccc(Cl)cc2)=C(CN2CCN(c3ccc(C(=O)NS(=O)(=O)c4ccc(N[C@H](CCN5CCOCC5)CSc5ccccc5)c(S(=O)(=O)C(F)(F)F)c4)cc3)CC2)C1 [Navitoclax] (partner 0.5 µM)
NCI-H441; first compound 0.08 µM
  relative viability: 0.719
NCI-H441; first compound 0.253 µM
  relative viability: 0.535
NCI-H441; first compound 0.8 µM
  relative viability: 0.745
NCI-H441; first compound 2.53 µM
  relative viability: 0.57
NCI-H23; first compound 0.08 µM
  relative viability: 0.875
NCI-H23; first compound 0.253 µM
  relative viability: 0.87
NCI-H23; first compound 0.8 µM
  relative viability: 0.63
NCI-H23; first compound 2.53 µM
  relative viability: 0.785
RERF-LC-KJ; first compound 0.08 µM
  relative viability: 1.08
RERF-LC-KJ; first compound 0.253 µM
  relative viability: 0.626
RERF-LC-KJ; first compound 0.8 µM
  relative viability: 0.905
RERF-LC-KJ; first compound 2.53 µM
  relative viability: 0.776
NCI-H1355; first compound 0.08 µM
  relative viability: 1.03
NCI-H1355; first compound 0.253 µM
  relative viability: 0.858
NCI-H1355; first compound 0.8 µM
  relative viability: 0.884
NCI-H1355; first compound 2.53 µM
  relative viability: 0.938
NCI-H2009; first compound 0.08 µM
  relative viability: 1.15
NCI-H2009; first compound 0.253 µM
  relative viability: 1.16
NCI-H2009; first compound 0.8 µM
  relative viability: 1.28
NCI-H2009; first compound 2.53 µM
  relative viability: 1.06
LCLC-97TM1; first compound 0.08 µM
  relative viability: 0.41
LCLC-97TM1; first compound 0.253 µM
  relative viability: 0.377
LCLC-97TM1; first compound 0.8 µM
  relative viability: 0.42
LCLC-97TM1; first compound 2.53 µM
  relative viability: 0.4
NCI-H2023; first compound 0.08 µM
  relative viability: 1.01
NCI-H2023; first compound 0.253 µM
  relative viability: 0.977
NCI-H2023; first compound 0.8 µM
  relative viability: 1.08
NCI-H2023; first compound 2.53 µM
  relative viability: 1.09
NCI-H727; first compound 0.08 µM
  relative viability: 0.45
NCI-H727; first compound 0.253 µM
  relative viability: 0.432
NCI-H727; first compound 0.8 µM
  relative viability: 0.476
NCI-H727; first compound 2.53 µM
  relative viability: 0.364
NCI-H322M; first compound 0.08 µM
  relative viability: 1.3
NCI-H322M; first compound 0.253 µM
  relative viability: 1.25
NCI-H322M; first compound 0.8 µM
  relative viability: 1.14
NCI-H322M; first compound 2.53 µM
  relative viability: 1.2
HOP-62; first compound 0.08 µM
  relative viability: 1.13
HOP-62; first compound 0.253 µM
  relative viability: 0.843
HOP-62; first compound 0.8 µM
  relative viability: 0.997
HOP-62; first compound 2.53 µM
  relative viability: 0.768
NCI-H1437; first compound 0.08 µM
  relative viability: 1.1
NCI-H1437; first compound 0.253 µM
  relative viability: 1.05
NCI-H1437; first compound 0.8 µM
  relative viability: 1.12
NCI-H1437; first compound 2.53 µM
  relative viability: 1.12
NCI-H2085; first compound 0.08 µM
  relative viability: 1.17
NCI-H2085; first compound 0.253 µM
  relative viability: 1.15
NCI-H2085; first compound 0.8 µM
  relative viability: 1.03
NCI-H2085; first compound 2.53 µM
  relative viability: 1.16
UMC-11; first compound 0.08 µM
  relative viability: 0.341
UMC-11; first compound 0.253 µM
  relative viability: 0.295
UMC-11; first compound 0.8 µM
  relative viability: 0.304
UMC-11; first compound 2.53 µM
  relative viability: 0.324
NCI-H1755; first compound 0.08 µM
  relative viability: 1.07
NCI-H1755; first compound 0.253 µM
  relative viability: 0.866
NCI-H1755; first compound 0.8 µM
  relative viability: 1.01
NCI-H1755; first compound 2.53 µM
  relative viability: 0.989
ChaGo-K-1; first compound 0.08 µM
  relative viability: 0.791
ChaGo-K-1; first compound 0.253 µM
  relative viability: 0.863
ChaGo-K-1; first compound 0.8 µM
  relative viability: 0.516
ChaGo-K-1; first compound 2.53 µM
  relative viability: 0.856
LOU-NH91; first compound 0.08 µM
  relative viability: 0.821
LOU-NH91; first compound 0.253 µM
  relative viability: 0.679
LOU-NH91; first compound 0.8 µM
  relative viability: 0.611
LOU-NH91; first compound 2.53 µM
  relative viability: 0.633
HCC-78; first compound 0.08 µM
  relative viability: 0.955
HCC-78; first compound 0.253 µM
  relative viability: 0.661
HCC-78; first compound 0.8 µM
  relative viability: 0.701
HCC-78; first compound 2.53 µM
  relative viability: 0.757
NCI-H2405; first compound 0.08 µM
  relative viability: 1.17
NCI-H2405; first compound 0.253 µM
  relative viability: 0.761
NCI-H2405; first compound 0.8 µM
  relative viability: 1.02
NCI-H2405; first compound 2.53 µM
  relative viability: 0.326
NCI-H2170; first compound 0.08 µM
  relative viability: 0.638
NCI-H2170; first compound 0.253 µM
  relative viability: 0.51
NCI-H2170; first compound 0.8 µM
  relative viability: 0.517
NCI-H2170; first compound 2.53 µM
  relative viability: 0.537
SK-MES-1; first compound 0.08 µM
  relative viability: 1.19
SK-MES-1; first compound 0.253 µM
  relative viability: 1.14
SK-MES-1; first compound 2.53 µM
  relative viability: 1.14
NCI-H1792; first compound 0.08 µM
  relative viability: 0.624
NCI-H1792; first compound 0.253 µM
  relative viability: 0.577
NCI-H1792; first compound 0.8 µM
  relative viability: 0.601
NCI-H1792; first compound 2.53 µM
  relative viability: 0.568
